Consider 57 compounds from patent publication US9023865B2, “Compounds that are ERK inhibitors” (Merck Sharp & Dohme Corp., priority 2011, dated 2015).

Each structure is given as a SMILES string. Read-outs that look alike come from different tables or passages of the source.

This experiment has as its target Active Human ERK2 (hERK2) (Homo sapiens (Human), UniProt P28482). The experiment in a line: Active Human ERK2 (hERK2) Activity Assay (IMAP-FP). Format: biochemical. Here is the method: Assays Active Human ERK2 (hERK2) Activity Assay:
Activated ERK2 activity was determined in an IMAP-FP assay (Molecular Devices). […] The final reaction in each well of 25 μL consists of 0.5 nM hERK2, 900 nM unlabeled peptide, 80 nM labeled-peptide, and 30 μM ATP. Phosphorylation reactions were allowed to proceed for 60 minutes and were immediately quenched by the addition of […] IMAP detection beads (1:1000 dilutions) in IMAP binding buffer (Molecular Devices) with 24 mM NaCl. Plates were read on EnVision reader after 60 minutes binding equilibration using Fluorescence Polarization protocol (Perkin Elmer).

[1] abbreviates: phosphorylated active hERK2, 30 μM ATP, average, read-out: ERK 2 Human average IC50.
[2] abbreviates: read-out: AERK2 IC50 (Active human ERK2 Activity Assay).

Active Human ERK2 (hERK2), sequence (P28482 whole entry): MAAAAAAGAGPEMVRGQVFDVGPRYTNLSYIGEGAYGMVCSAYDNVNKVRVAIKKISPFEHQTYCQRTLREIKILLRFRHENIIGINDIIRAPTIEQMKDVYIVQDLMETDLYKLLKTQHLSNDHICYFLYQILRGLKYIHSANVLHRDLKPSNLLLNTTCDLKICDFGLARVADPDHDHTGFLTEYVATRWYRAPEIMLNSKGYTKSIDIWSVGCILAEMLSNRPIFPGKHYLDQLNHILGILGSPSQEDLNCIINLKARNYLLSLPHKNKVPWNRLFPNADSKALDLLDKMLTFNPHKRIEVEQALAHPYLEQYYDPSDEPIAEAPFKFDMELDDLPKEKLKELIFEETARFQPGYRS

In general, IC50 refers to the concentration that gives 50% inhibition. Regarding `Cc1cc(-c2n[nH]c3cc(NC(=O)N[C@H]4CCOC4=O)ncc23)ccn1` [Example 456], the IC50 under setting [1] is 253 nM.

As to `CO[C@@H](C)CNC(=O)Nc1cc2[nH]nc(-c3ccc(F)cc3)c2cn1` [Example 635], under setting [1], the IC50 was 0.873 nM.

As for `Cc1cc(-c2n[nH]c3cc(NC(=O)N(C)Cc4cccnc4)ncc23)ccn1` [Example 46, 1-methyl-3-[3-(2-methylpyridin-4-yl)-1H-pyrazolo[4,3-c]pyridin-6-yl]-1-(pyridin-3-ylmethyl)urea], the IC50 under setting [1] came to 763 nM.

As to `Cc1cc(-c2n[nH]c3cc(NC(=O)N[C@H](C)C4CCC4)ncc23)ccn1` [Example 595], the IC50 under setting [1] turned out to be 3.46 nM.

Regarding `Cc1cncc(-c2n[nH]c3cc(NC(=O)N[C@H](C)c4ccc(F)cc4)ncc23)c1` [Example 308], the IC50 under setting [1] was determined as 1.8 nM.

In the case of `Cc1cc(-c2n[nH]c3c(Cl)c(NC(=O)NCc4ccccc4)ncc23)ccn1` [Example 92, 1-benzyl-3-[7-chloro-3-(2-methylpyridin-4-yl)-1H-pyrazolo[4,3-c]pyridin-6-yl]urea], the 50% inhibitory concentration (IC50) under setting [1] was 6.25 nM.

`Cn1cc(-c2n[nH]c3cc(NC(=O)NCc4ccc(F)c(Cl)c4)ncc23)cn1` [Example 60, 1-(3-chloro-4-fluorobenzyl)-3-[3-(1-methyl-1H-pyrazol-4-yl)-1H-pyrazolo[4,3-c]pyridin-6-yl]urea]: the IC50 by setting is: under setting [1], 0.251 nM; under setting [2], 0.2 to 1.7 nM.

With `Cc1cc(-c2n[nH]c3cc(NC(=O)NC4CCN(S(C)(=O)=O)c5ccccc54)ncc23)ccn1` (stereo not drawn) [Example 277], the IC50 under setting [1] is 1.35 nM.

Turning to `Cc1cc(-c2n[nH]c3c(Br)c(NC(=O)N[C@H](C)c4ccccc4)ncc23)ccn1` [Example 79, 1-[7-bromo-3-(2-methylpyridin-4-yl)-1H-pyrazolo[4,3-c]pyridin-6-yl]-3-[(1R)-1-phenylethyl]urea], the IC50 under setting [1] was found to be 34.5 nM.

On to `Cc1cc(-c2n[nH]c3cc(NC(=O)NC4COC4)ncc23)ccn1` [Example 465], for which the IC50 under setting [1] is 320 nM.

For the compound `Cc1ccc2nc(CNC(=O)Nc3cc4[nH]nc(-c5ccnc(C)c5)c4cn3)cn2c1` [Example 391], the IC50 under setting [1] was found to be 22.2 nM.

With `COCC(C)NC(=O)Nc1cc2[nH]nc(-c3ccnc(C)c3)c2cn1` (stereo not drawn) [Example 202], the IC50 under setting [1] is 11.6 nM.

`C[C@@H](NC(=O)Nc1cc2[nH]nc(-c3ccc(S(C)(=O)=O)cc3)c2cn1)c1ccccc1` [Example 89, 1-{3-[4-(methylsulfonyl)phenyl]-1H-pyrazolo[4,3-c]pyridin-6-yl}-3-[(1R)-1-phenylethyl]urea]: the IC50 runs as follows: under setting [1], 1.33 nM; under setting [2], 0.2 to 1.7 nM.

Consider `C[C@@H](NC(=O)Nc1cc2[nH]nc(C(F)F)c2cn1)c1ccccc1` [Example 670], for which the IC50 under setting [1] was found to be 13.6 nM.

In the case of `Cc1cc(-c2n[nH]c3cc(NC(=O)NCc4ccc(F)cn4)ncc23)ccn1` [Example 516], the IC50 under setting [1] is 2.35 nM.

As to `CNC(=O)c1n[nH]c2cc(NC(=O)N[C@H](C)c3ccccc3)ncc12` [Example 137], the IC50 under setting [1] was 4.54 nM.

With `CSC[C@@H](NC(=O)Nc1cc2[nH]nc(-c3ccnc(C)c3)c2cn1)c1ccccc1` [Example 570], under setting [1], the IC50 was found to be 0.257 nM.

In the case of `COc1cccc(F)c1CN1CCC[C@@H](NC(=O)Nc2cc3[nH]nc(-c4ccc5nn(C)cc5c4)c3cn2)C1` [Example 662], the IC50 under setting [1] was 0.929 nM.

Consider `Cc1cc(-c2n[nH]c3cc(NC(=O)NCC4(O)CC4)ncc23)ccn1` [Example 37], for which the half-maximal inhibitory concentration (IC50) under setting [1] came out at 9.9 nM.

`CC[C@H](NC(=O)Nc1cc2[nH]nc(-c3ccnc(C)c3)c2cn1)c1ccccn1` [Example 217]: the IC50 under setting [1] was found to be 41.6 nM.

With `Cc1cc(-c2n[nH]c3cc(NC(=O)N[C@H]4CN(C)C[C@@H]4c4ccccc4C)ncc23)ccn1` [Example 207], under setting [1], the IC50 came to 0.537 nM.

As for `C[C@@H](NC(=O)Nc1cc2[nH]nc(-c3ccc(F)cc3)c2cn1)c1ccc(F)c(Cl)c1` [Example 73, 1-[(1R)-1-(3-chloro-4-fluorophenyl)ethyl]-3-[3-(4-fluorophenyl)-1H-pyrazolo[4,3-c]pyridin-6-yl]urea], the IC50 under setting [1] was 9.34 nM.

With `Cc1cc(-c2n[nH]c3cc(NC(=O)NCc4cc5ccccc5cn4)ncc23)ccn1` [Example 395], the half-inhibitory concentration (IC50) under setting [1] came to 7.66 nM.

`C[C@@H](NC(=O)Nc1cc2[nH]nc(C(N)C(F)(F)F)c2cn1)c1ccccc1` (stereo partly drawn) [Example 563, 1-(3-(1-amino-2,2,2-trifluoroethyl)-1H-pyrazolo[4,3-c]pyridin-6-yl)-3-((R)-1-phenylethyl)urea]: under setting [1], the IC50 was determined as 251 nM.

With `C[C@@H](NC(=O)Nc1cc2[nH]nc(C(=O)N(C)C)c2cn1)c1ccccc1` [Example 139], the IC50 under setting [1] is 570 nM.

Take `COc1ccccc1CNC(=O)Nc1cc2[nH]nc(-c3ccnc(C)c3)c2cn1` [Example 529]: the IC50 under setting [1] was found to be 0.293 nM.

Regarding `Cc1cc(-c2n[nH]c3cc(NC(=O)NC4CCOC4)ncc23)ccn1` (stereo not drawn) [Example 577], under setting [1], the half-maximal inhibitory concentration (IC50) was 4 nM.

For the compound `Cc1cc(-c2n[nH]c3cc(NC(=O)NC4CCCOC4)ncc23)ccn1` (stereo not drawn) [Example 468], the 50% inhibitory concentration (IC50) under setting [1] was determined as 8.62 nM.

Consider `Cc1cc(-c2n[nH]c3cc(NC(=O)NC4CNC4)ncc23)ccn1` [Example 39, 1-azetidin-3-yl-3-[3-(2-methylpyridin-4-yl)-1H-pyrazolo[4,3-c]pyridin-6-yl]urea], for which the IC50 under setting [1] came to 60.3 nM.

For the compound `Cc1cc(-c2n[nH]c3cc(NC(=O)NCc4ccc(F)cc4C(F)(F)F)ncc23)ccn1` [Example 512], the IC50 under setting [1] came out at 2.94 nM.

For `Cc1cc(-c2n[nH]c3cc(NC(=O)N[C@H](CN)c4ccccc4)ncc23)ccn1` [Example 483], the IC50 under setting [1] was 0.152 nM.

Turning to `Cc1cc(-c2n[nH]c3cc(NC(=O)N[C@@H]4CN[C@H](c5ccccc5)C4)ncc23)ccn1` [Example 405], the IC50 under setting [1] came out at 14.2 nM.

With `Cc1cc(-c2n[nH]c3cc(NC(=O)NC4(c5ccncc5)CC4)ncc23)ccn1` [Example 356], the half-maximal inhibitory concentration (IC50) under setting [1] turned out to be 130 nM.

Regarding `C[C@@H](NC(=O)Nc1cc2[nH]nc(-c3ccc(N4CCOCC4)nc3)c2cn1)c1ccc(F)cc1` [Example 255], the IC50 under setting [1] was found to be 0.783 nM.

Turning to `O=C(Nc1cc2[nH]nc(C(F)F)c2cn1)NC1Cc2ccccc2C1O` (stereo not drawn) [Example 696], the IC50 under setting [1] stood at 175 nM.

`Cc1cc(-c2n[nH]c3cc(NC(=O)NC4CCOc5ccccc54)ncc23)ccn1` (stereo not drawn) [Example 532]: under setting [1], the IC50 was determined as 3.52 nM.

Consider `Cc1cc(-c2n[nH]c3cc(NC(=O)NC(CN)c4ccccc4)ncc23)ccn1` (stereo not drawn) [Example 361], for which the IC50 under setting [1] came out at 0.232 nM.

Consider `Cc1cc(-c2n[nH]c3c(F)c(NC(=O)NC(C)c4ccccn4)ncc23)ccn1` (stereo not drawn) [Example 225], for which the half-inhibitory concentration (IC50) under setting [1] came out at 2.45 nM.

Consider `Cc1cc(-c2n[nH]c3cc(NC(=O)NCc4c(C)cc(Cl)cc4Cl)ncc23)ccn1` [Example 514], for which the IC50 under setting [1] came out at 2.87 nM.

Consider `Cc1cc(-c2n[nH]c3cc(NC(=O)NCc4ncc(F)cc4Cl)ncc23)ccn1` [Example 517], for which, under setting [1], the IC50 turned out to be 0.761 nM.

For the compound `COC[C@@H](NC(=O)Nc1ncc2c(-c3ccncc3)n[nH]c2c1F)c1ccccc1` [Example 547], the concentration for half-maximal inhibition (IC50) under setting [1] was determined as 0.184 nM.

Take `Cc1cc(-c2n[nH]c3cc(NC(=O)Nc4ccccc4)ncc23)ccn1` [Example 61, 1-[3-(2-methylpyridin-4-yl)-1H-pyrazolo[4,3-c]pyridin-6-yl]-3-phenylurea]: under setting [1], the IC50 was determined as 127 nM.

Turning to `CCC(NC(=O)Nc1cc2[nH]nc(-c3ccnc(C)c3)c2cn1)c1ccccn1` (stereo not drawn) [Example 347], the IC50 under setting [1] was found to be 1.34 nM.

For `COCCNC(=O)Nc1cc2[nH]nc(-c3ccc4cn(C)nc4c3)c2cn1` [Example 625], the half-maximal inhibitory concentration (IC50) under setting [1] came to 13.6 nM.

For `COCCNC(=O)Nc1cc2[nH]nc(-c3ccnc(C)c3)c2cn1` [Example 40, 1-(2-methoxyethyl)-3-[3-(2-methylpyridin-4-yl)-1H-pyrazolo[4,3-c]pyridin-6-yl]urea], the IC50 under setting [1] worked out at 2.9 nM.

As for `C/C=C/c1n[nH]c2cc(NC(=O)N[C@H](C)c3ccccc3)ncc12` [Example 67, 1-[(1R)-1-phenylethyl]-3-{3-[(1E)-prop-1-en-1-yl]-1H-pyrazolo[4,3-c]pyridin-6-yl}urea], the IC50 under setting [1] was found to be 0.428 nM and the IC50 under setting [2] lay within 0.2 to 1.7 nM.

On to `COc1cccc(F)c1CN1CCC[C@@H](NC(=O)Nc2cc3[nH]nc(-c4ccnc(F)c4)c3cn2)C1` [Example 649], for which the IC50 under setting [1] was determined as 1.06 nM.

For `Cc1cc(-c2n[nH]c3cc(NC(=O)NC4CCc5[nH]nc(C)c5C4)ncc23)ccn1` (stereo not drawn) [Example 507], under setting [1], the IC50 stood at 0.762 nM.

For `CC1=NOC(C)(CNC(=O)Nc2cc3[nH]nc(-c4ccnc(C)c4)c3cn2)C1` (stereo not drawn) [Example 192], the IC50 under setting [1] is 21.7 nM.

With `Cc1cc(-c2n[nH]c3cc(NC(=O)N[C@@H](CN(C)C)c4ccccc4)ncc23)ccn1` [Example 481], the IC50 under setting [1] was found to be 10.8 nM.

Turning to `Cc1cc(-c2n[nH]c3cc(NC(=O)N[C@H](C)c4ncccc4F)ncc23)ccn1` [Example 232], the concentration for half-maximal inhibition (IC50) under setting [1] was determined as 0.699 nM.

`COc1cccc(F)c1CNC(=O)Nc1cc2[nH]nc(-c3ccnc(C)c3)c2cn1` [Example 485]: the IC50 under setting [1] was found to be 0.307 nM.

Regarding `COc1cncc(-c2n[nH]c3cc(NC(=O)N[C@H](C)c4ccc(F)cc4)ncc23)n1` [Example 251], under setting [1], the IC50 was determined as 5.26 nM.

As to `Cc1cc(-c2n[nH]c3cc(NC(=O)NCc4c(C)cccc4Cl)ncc23)ccn1` [Example 444], the IC50 under setting [1] worked out at 1.12 nM.

Take `Cc1cc(-c2n[nH]c3c(C)c(NC(=O)N[C@H](C)c4ccccc4)ncc23)ccn1` [Example 174, (R)-1-(7-Methyl-3-(2-methylpyridin-4-yl)-1H-pyrazolo[4,3-c]pyridin-6-yl)-3-(1-phenylethyl)urea]: the concentration for half-maximal inhibition (IC50) under setting [1] is 1.58 nM.

Regarding `CCOC[C@@H](NC(=O)Nc1cc2[nH]nc(-c3cc(C)on3)c2cn1)c1ccccc1` [Example 698], the 50% inhibitory concentration (IC50) under setting [1] amounted to 6.78 nM.

Take `C[C@@H](NC(=O)Nc1cc2[nH]nc(Br)c2cn1)c1ccc(F)c(Cl)c1` [Example 68, 1-(3-bromo-1H-pyrazolo[4,3-c]pyridin-6-yl)-3-[(1R)-1-(3-chloro-4-fluorophenyl)ethyl]urea]: under setting [1], the IC50 turned out to be 106 nM.
